Results reported in US20140348861A1, “SYNTHETIC PEPTIDES AND RANDOM COPOLYMERS FOR THE TREATMENT OF AUTOIMMUNE DISORDERS” (NATIONAL INSTITUTE OF IMMUNOLOGY, priority 2011, published 2014).
Non-standard residues stand in square brackets, D forms with d. Primed or numbered codes have the meaning given here. No end group written: not given here. Kβ(3) = beta-amino acid residue (Lys analogue); β3hY = N[C@H](CC(=O)O)Cc1ccc(O)cc1; Kβ″ = beta-amino acid residue (K); β3hK = NCCCC[C@H](N)CC(=O)O; Yβ = β-tyrosine

Tests used:
[1] = test system: relapsing remitting EAE in SJL/J mice; assay: Prophylactic (pre-treatment) efficacy in relapsing remitting EAE; assay type: in vivo; details: pre-treatment 0.5 mg in IFA; FIG. 2i
Description: (§1) To induce RR EAE or chronic progressive EAE, SJL/J or C57BL6/J mice were immunized subcutaneously with 0.2 mg of MBP (85-109) or 0.1 mg MOG (35-55) emulsified in CFA and 200 ng of pertussis toxin was injected intraperitoneally on day 0 and day 2 so as to permeablize the blood brain barrier. All the animals in various experimental groups were scored daily for clinical disability on a scale of 0-6 where 0=no neurological symptoms, 1=limp tail, 2=weakness of hind limbs or ataxia, 3=incomplete paralysis of hind limbs, 4=complete paralysis of hind limbs, 5=complete paralysis of all four limbs, 6=dead. Diseased animals were provided easy access to food and water.

[2] = test system: SJL/J mice exhibiting MBP (85-109) induced relapsing remitting form of EAE; assay: Therapeutic activity in MBP (85-109) induced relapsing remitting EAE, treatment from day 11; assay type: in vivo; details: for Therapeutic activity in comparison to GA (Therapeutic activity (Analogs) − Therapeutic activity GA) / Therapeutic activity in comparison to J5 (Therapeutic activity (Analogs) − Therapeutic activity (J5)) / Therapeutic activity = % reduction in cumulative clinical disability score: SJL/J mice, RR EAE; for Therapeutic activity in comparison to GA (Therapeutic activity (Analogs) − Therapeutic activity GA) / Therapeutic activity in comparison to J5 (Therapeutic activity (Analogs) − Therapeutic activity (J5)): 0.1 mg daily for two weeks; for Therapeutic activity = % reduction in cumulative clinical disability score: synthetic peptides, 0.1 mg daily for two weeks from day 11 post-immunization
Description: SJL/J and C57BL6/J mice procured from Jackson's laboratory (Bar Harbor, Me.) were maintained under standard housing conditions in the central animal facility at NII as per institutional ethical committee guidelines. 8-10 week old female SJL/J mice were used throughout the study.
as §1
GA, J91, J92, S101, S102, S103 for two weeks and scored for clinical disability.

Substance: Eβ^3Kβ^3Pβ^3Kβ^3Vβ^3Eβ^3Aβ^3Yβ^3Kβ^3Aβ^3Aβ^3Aβ^3Aβ^3Pβ^3Aβ^3 [Analog S15]
- delay of clinical onset of disease [1]: ~3 days
- Therapeutic activity in comparison to GA (Therapeutic activity (Analogs) − Therapeutic activity GA) [2]: 30.91%
- Therapeutic activity in comparison to J5 (Therapeutic activity (Analogs) − Therapeutic activity (J5)) [2]: 26.95%
- efficacy relative to GA ([2]; both treatment and pre-treatment scenarios): approximately two times better
- Therapeutic activity = % reduction in cumulative clinical disability score [2]: 62.25%

Substance: KβVβEAYβKβAβAβAβAβ [Analog S65]
- Therapeutic activity in comparison to GA (Therapeutic activity (Analogs) − Therapeutic activity GA) [2]: −5.989%
- Therapeutic activity in comparison to J5 (Therapeutic activity (Analogs) − Therapeutic activity (J5)) [2]: −9.947%
- Therapeutic activity = % reduction in cumulative clinical disability score [2]: 25.35%

Substance: KβVβEβAβYβKβ [Analog S71]
- Therapeutic activity in comparison to GA (Therapeutic activity (Analogs) − Therapeutic activity GA) [2]: −14.9519%
- Therapeutic activity in comparison to J5 (Therapeutic activity (Analogs) − Therapeutic activity (J5)) [2]: −18.9091%
- Therapeutic activity = % reduction in cumulative clinical disability score [2]: 16.39%

Substance: KβVβEβAβYβKβAβAβAβAβ [Analog S64]
- Therapeutic activity in comparison to GA (Therapeutic activity (Analogs) − Therapeutic activity GA) [2]: −7.38%
- Therapeutic activity in comparison to J5 (Therapeutic activity (Analogs) − Therapeutic activity (J5)) [2]: −11.3369%
- Therapeutic activity = % reduction in cumulative clinical disability score [2]: 23.96%

Substance: Kβ^3Vβ^3EAYβ^3Kβ^3 [Analog S34]
- Therapeutic activity in comparison to GA (Therapeutic activity (Analogs) − Therapeutic activity GA) [2]: 25.03%
- Therapeutic activity in comparison to J5 (Therapeutic activity (Analogs) − Therapeutic activity (J5)) [2]: 21.07%
- Therapeutic activity = % reduction in cumulative clinical disability score [2]: 56.36%

Substance: Kβ^3Vβ^3EAYβ^3Kβ^3Aβ^3Aβ^3Aβ^3Aβ^3 [Analog S26]
- Therapeutic activity in comparison to GA (Therapeutic activity (Analogs) − Therapeutic activity GA) [2]: 27.91%
- Therapeutic activity in comparison to J5 (Therapeutic activity (Analogs) − Therapeutic activity (J5)) [2]: 23.96%
- Therapeutic activity = % reduction in cumulative clinical disability score [2]: 59.25%

Substance: Kβ^3Vβ^3Eβ^3AβYβ^3Kβ^3AβAβAβAβ^3 [Analog S81]
- Therapeutic activity in comparison to GA (Therapeutic activity (Analogs) − Therapeutic activity GA) [2]: 31.12%
- Therapeutic activity in comparison to J5 (Therapeutic activity (Analogs) − Therapeutic activity (J5)) [2]: 27.17%
- Therapeutic activity = % reduction in cumulative clinical disability score [2]: 62.46%

Substance: Kβ^3Vβ^3Eβ^3AβYβ^3Kβ^3AβAβAβ^3Aβ^3 [Analog S82]
- Therapeutic activity in comparison to GA (Therapeutic activity (Analogs) − Therapeutic activity GA) [2]: 31.87%
- Therapeutic activity in comparison to J5 (Therapeutic activity (Analogs) − Therapeutic activity (J5)) [2]: 27.91%
- Therapeutic activity = % reduction in cumulative clinical disability score [2]: 63.21%

Substance: Kβ^3Vβ^3Eβ^3Aβ^3Yβ^3Kβ^3 [Analog S33]
- Therapeutic activity in comparison to GA (Therapeutic activity (Analogs) − Therapeutic activity GA) [2]: 14.44%
- Therapeutic activity in comparison to J5 (Therapeutic activity (Analogs) − Therapeutic activity (J5)) [2]: 10.48%
- Therapeutic activity = % reduction in cumulative clinical disability score [2]: 45.7754%

Substance: VEAYK (Peptide analog) [Analog J5c, reference compound]
- Therapeutic activity in comparison to GA (Therapeutic activity (Analogs) − Therapeutic activity GA) [2]: −9.947%
- Therapeutic activity in comparison to J5 (Therapeutic activity (Analogs) − Therapeutic activity (J5)) [2]: −13.9037%
- Therapeutic activity = % reduction in cumulative clinical disability score [2]: 21.39%

Substance: VEAYKβ (VEAY[Kβ″]) [Analog S73]
- Therapeutic activity in comparison to GA (Therapeutic activity (Analogs) − Therapeutic activity GA) [2]: −10.0535%
- Therapeutic activity in comparison to J5 (Therapeutic activity (Analogs) − Therapeutic activity (J5)) [2]: −14.0107%
- Therapeutic activity = % reduction in cumulative clinical disability score [2]: 21.28%

Substance: VEAYKβ^3 (VEAY[β3hK]) [Analog S35]
- Therapeutic activity in comparison to GA (Therapeutic activity (Analogs) − Therapeutic activity GA) [2]: −6.952%
- Therapeutic activity in comparison to J5 (Therapeutic activity (Analogs) − Therapeutic activity (J5)) [2]: −10.9091%
- Therapeutic activity = % reduction in cumulative clinical disability score [2]: 24.39%

Substance: VEAYβKβ (VEA[Yβ][Kβ(3)]) [Analog S74]
- Therapeutic activity in comparison to GA (Therapeutic activity (Analogs) − Therapeutic activity GA) [2]: −9.947%
- Therapeutic activity in comparison to J5 (Therapeutic activity (Analogs) − Therapeutic activity (J5)) [2]: −13.9037%
- Therapeutic activity = % reduction in cumulative clinical disability score [2]: 21.39%

Substance: VEAYβ^3Kβ^3 (VEA[β3hY][β3hK]) [Analog S36]
- Therapeutic activity in comparison to GA (Therapeutic activity (Analogs) − Therapeutic activity GA) [2]: −2.46%
- Therapeutic activity in comparison to J5 (Therapeutic activity (Analogs) − Therapeutic activity (J5)) [2]: −6.417%
- Therapeutic activity = % reduction in cumulative clinical disability score [2]: 28.88%

Substance: VEAβYβKβ [Analog S75]
- Therapeutic activity in comparison to GA (Therapeutic activity (Analogs) − Therapeutic activity GA) [2]: −5.5615%
- Therapeutic activity in comparison to J5 (Therapeutic activity (Analogs) − Therapeutic activity (J5)) [2]: −9.519%
- Therapeutic activity = % reduction in cumulative clinical disability score [2]: 25.7754%

Substance: VEAβ^3Yβ^3Kβ^3 [Analog S37]
- Therapeutic activity in comparison to GA (Therapeutic activity (Analogs) − Therapeutic activity GA) [2]: −0.9626%
- Therapeutic activity in comparison to J5 (Therapeutic activity (Analogs) − Therapeutic activity (J5)) [2]: −4.92%
- Therapeutic activity = % reduction in cumulative clinical disability score [2]: 30.37%

Substance: VEβAβYβKβ [Analog S76]
- Therapeutic activity in comparison to GA (Therapeutic activity (Analogs) − Therapeutic activity GA) [2]: −7.914%
- Therapeutic activity in comparison to J5 (Therapeutic activity (Analogs) − Therapeutic activity (J5)) [2]: −11.8717%
- Therapeutic activity = % reduction in cumulative clinical disability score [2]: 23.42%

Substance: VEβ^3Aβ^3Yβ^3Kβ^3 [Analog S38]
- Therapeutic activity in comparison to GA (Therapeutic activity (Analogs) − Therapeutic activity GA) [2]: −4.813%
- Therapeutic activity in comparison to J5 (Therapeutic activity (Analogs) − Therapeutic activity (J5)) [2]: −8.77%
- Therapeutic activity = % reduction in cumulative clinical disability score [2]: 26.52%

Substance: VβEAYβKβ [Analog S78]
- Therapeutic activity in comparison to GA (Therapeutic activity (Analogs) − Therapeutic activity GA) [2]: −11.9037%
- Therapeutic activity in comparison to J5 (Therapeutic activity (Analogs) − Therapeutic activity (J5)) [2]: −15.861%
- Therapeutic activity = % reduction in cumulative clinical disability score [2]: 19.43%

Substance: VβEβAβYβKβ [Analog S77]
- Therapeutic activity in comparison to GA (Therapeutic activity (Analogs) − Therapeutic activity GA) [2]: −18.8235%
- Therapeutic activity in comparison to J5 (Therapeutic activity (Analogs) − Therapeutic activity (J5)) [2]: −22.7808%
- Therapeutic activity = % reduction in cumulative clinical disability score [2]: 12.51%

Substance: Vβ^3EAYβ^3Kβ^3 [Analog S40]
- Therapeutic activity in comparison to GA (Therapeutic activity (Analogs) − Therapeutic activity GA) [2]: 13.9%
- Therapeutic activity in comparison to J5 (Therapeutic activity (Analogs) − Therapeutic activity (J5)) [2]: 9.947%
- Therapeutic activity = % reduction in cumulative clinical disability score [2]: 45.24%

Substance: Vβ^3Eβ^3Aβ^3Yβ^3Kβ^3 [Analog S39]
- Therapeutic activity in comparison to GA (Therapeutic activity (Analogs) − Therapeutic activity GA) [2]: 9.519%
- Therapeutic activity in comparison to J5 (Therapeutic activity (Analogs) − Therapeutic activity (J5)) [2]: 5.561%
- Therapeutic activity = % reduction in cumulative clinical disability score [2]: 40.86%
